Tested on: A549 cells (human lung cancer)
Assay: Inhibition of TNF alpha cytotoxicity (LDH release into culture supernatant)
Assay type: cell-based
Conditions: ingredient at 1 ug/ml, FIG. 2
Protocol: A549 cells (human lung cancer) were seeded in six-well plates, and after 24 h (70% confluence) treated with 25 ug/ml cycloheximide (CHX) and either 100 U/ml human TNF (Beoringer) or an agonist monoclonal antibody to FAS (Panerva) in concentration 200 ng/ml. GMDP, and GMHP were added just prior to the cytokine in the concentrations discussed in the figure legends. Twenty hours after the treatment 20 ul of the cultured supernatant was removed and tested for the LDH activity in 96 well plates in triplicate. Samples were assayed on an EL340 Microplate reader (Biotec Instruments, Inc) at 490-nm wavelength.
The purpose of this experiment was to show the synergistic effect of NAG and D-glutamine on LDH release. Technically the experiment was similar to example 1. Both ingredients were added in concentration 1 ug/ml. […] Almost 50% inhibition of LDH activity was noticed for NAG+D-glutamine composition. […] The glucosamine muramyl hexapeptide has 3 D-amino acids while GMDP has only one D-isoglutamine.

Question: How did the “protection of cells from TNF alpha cytotoxicity (LDH release)” value turn out when NC(=O)CC[C@H](N)C(=O)O [L-glutamine] was run?
Answer: The value was “does not protect cells from TNF alpha cytotoxicity”.
